These are literature values, as cited in patent US8791093B2, “Pharmaceutical delivery systems for treatment of substance abuse and other addictions” (priority 2009, dated 2014).

Each structure is given as a SMILES string.

The target in data set [1] is T1, ALDH-II (Homo sapiens, UniProt P00352).
T1 sequence (P00352 1-501): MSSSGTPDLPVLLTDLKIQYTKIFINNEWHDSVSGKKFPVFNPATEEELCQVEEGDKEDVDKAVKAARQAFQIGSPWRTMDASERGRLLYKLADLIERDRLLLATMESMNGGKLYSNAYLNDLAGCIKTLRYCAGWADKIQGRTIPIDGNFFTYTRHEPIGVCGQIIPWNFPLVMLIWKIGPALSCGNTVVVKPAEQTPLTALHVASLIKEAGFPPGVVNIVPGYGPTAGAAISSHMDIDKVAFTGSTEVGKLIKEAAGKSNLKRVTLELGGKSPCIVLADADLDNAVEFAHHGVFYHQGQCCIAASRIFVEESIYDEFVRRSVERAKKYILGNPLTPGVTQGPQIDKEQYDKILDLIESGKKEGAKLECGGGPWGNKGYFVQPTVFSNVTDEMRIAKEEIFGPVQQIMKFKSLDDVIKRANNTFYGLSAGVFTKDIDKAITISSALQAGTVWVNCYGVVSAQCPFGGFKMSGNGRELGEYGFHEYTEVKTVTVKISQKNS

In data set [2] the target is T2, ALDH-I (Homo sapiens, UniProt P05091).
T2 sequence (P05091 18-517): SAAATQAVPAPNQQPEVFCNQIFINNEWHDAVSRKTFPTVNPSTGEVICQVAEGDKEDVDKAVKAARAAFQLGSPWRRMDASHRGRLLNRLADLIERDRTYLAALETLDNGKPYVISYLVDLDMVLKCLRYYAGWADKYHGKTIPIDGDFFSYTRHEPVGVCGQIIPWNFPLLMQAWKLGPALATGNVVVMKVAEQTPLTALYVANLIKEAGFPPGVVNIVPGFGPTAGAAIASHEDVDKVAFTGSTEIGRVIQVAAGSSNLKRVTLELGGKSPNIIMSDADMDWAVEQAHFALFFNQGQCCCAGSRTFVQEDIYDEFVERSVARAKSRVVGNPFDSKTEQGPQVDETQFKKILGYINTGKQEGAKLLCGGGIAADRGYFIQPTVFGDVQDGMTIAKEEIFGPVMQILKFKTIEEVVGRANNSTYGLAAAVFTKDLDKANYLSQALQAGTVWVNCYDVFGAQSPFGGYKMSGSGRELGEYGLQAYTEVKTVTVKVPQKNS

In the case of `CCN(CC)C(=S)SSC(=S)N(CC)CC` [Disulfiram, diethylcarbamothioylsulfanyl diethylaminomethanedithioate], the “inhibition of ALDH-II” value in data set [1] is “potent irreversible inhibitor”. In addition, the “inhibition of ALDH-I” value in data set [2] is “only slightly”.
